Experimental data: PubChem BioAssay AID286 (DTP/NCI, 2004)
“And” between values parts separate entries of the source, which are not always exact repeats. Identical values can stand only once. Toxic doses and inconclusive results are not listed. Starred links: 1 amine or outer side, 2 acyl side, 3 side chain; linkers in the order of their positions; H or OH if unused. Positions of bridges follow the written chain, without caps; N, C: chain ends. Non-standard residues stand in square brackets, D forms with d. Residues, ends and D or L forms follow the SMILES beside them. Chains are numbered I, II in the order given. ξ: configuration not given here. *: point of attachment. Quinaldoyl(3-OH,6-OMe) = COc1ccc2nc(C(=O)*)c(O)cc2c1; X2 = CC(=O)OC1CC=NN([*:1])C1C(=O)[*:2]; ξNMeVal(3-OH) = CNC(C(=O)O)C(C)(C)O; X3 = O=C(C1CCCNN1[*:1])[*:2]; Sar = CNCC(=O)O

System: BDF1 mice, M5076 sarcoma ip, median survival T/C
Assay: NCI In Vivo Anticancer Drug Screen. Data for tumor model Sarcoma M5076 (intraperitoneal) in B6D2F1 (BDF1) mice
Details: endpoint: median survival time, higher = longer survival
Experimental: The antitumor activity of compounds was measured in mice bearing transplantable tumors. Survival or tumor size were measured and the results are expressed as the measurement made in the treated group (T) divided by the measurement made in the vehicle treated control group (C). The tumor model used in this assay is Sarcoma M5076 (intraperitoneal) in B6D2F1 (BDF1) mice

`Cc1c(N)nc([C@H](CC(N)=O)NC[C@H](N)C(N)=O)nc1C(=O)N[C@H](C(=O)N[C@H](C)[C@@H](O)[C@H](C)C(=O)N[C@H](C(=O)NCCc1nc(-c2nc(C(=O)NCCC[S+](C)C)cs2)cs1)[C@@H](C)O)C(OC1OC(CO)C(O)C(O)C1OC1OC(CO)C(O)C(OC(N)=O)C1O)c1cnc[nH]1` (stereo partly specified) was tested, and the T/C (dose: 4.0 mg/kg/injection, schedule: Q04DX004 (ip), vehicle: saline) was 113 % of control, the T/C (dose: 8.0 mg/kg/injection, schedule: Q04DX004 (ip), vehicle: saline) was 101 % of control and the T/C (dose: 16.0 mg/kg/injection, schedule: Q04DX004 (ip), vehicle: saline) was 117 % of control. For the same molecule, the T/C (dose: 32.0 mg/kg/injection, schedule: Q04DX004 (ip), vehicle: saline) was 116 % of control.
For `CC[C@]1(O)C[C@H]2CN(CCc3c([nH]c4ccccc34)[C@@](C(=O)OC)(c3cc4c(cc3OC)N(C=O)[C@H]3[C@@](O)(C(=O)OC)[C@H](OC(C)=O)[C@]5(CC)C=CCN6CC[C@]43[C@@H]65)C2)C1`, the T/C (dose: 0.25 mg/kg/injection, schedule: Q04DX005 (ip), vehicle: saline) was 112 % of control and 124 % of control, the T/C (dose: 0.5 mg/kg/injection, schedule: Q04DX005 (ip), vehicle: saline) was 164 % of control and the T/C (dose: 1.0 mg/kg/injection, schedule: Q04DX005 (ip), vehicle: saline) was 228 % of control and 156 % of control.
In the case of `COc1ccc2nc(C(=O)NC3COC(=O)C(C(C)(C)O)N(C)C(=O)CN(C)C(=O)CNC(=O)C4CCCNN4C(=O)C(NC(=O)c4nc5ccc(OC)cc5cc4O)COC(=O)C(C(C)(C)O)N(C)C(=O)CN(C)C(=O)CNC(=O)C4C(OC(C)=O)CC=NN4C3=O)c(O)cc2c1` (stereo unspecified) (I: {Quinaldoyl(3-OH,6-OMe)}-S[X2]G[Sar][ξNMeVal(3-OH)] / II: {Quinaldoyl(3-OH,6-OMe)}-S[X3]G[Sar][ξNMeVal(3-OH)]; ester I:1-II:C, I:C-II:1; configuration not given here), the T/C (dose: 10.0 micrograms/kg/injection, schedule: Q01DX009 (ip), vehicle: DMSO) is reported as 155 % of control, the T/C (dose: 12.5 micrograms/kg/injection, schedule: Q01DX009 (ip), vehicle: DMSO) is reported as 157 % of control and the T/C (dose: 20.0 micrograms/kg/injection, schedule: Q01DX009 (ip), vehicle: DMSO) is reported as 190 % of control. The T/C (dose: 25.0 micrograms/kg/injection, schedule: Q01DX009 (ip), vehicle: DMSO) was 170 % of control and the T/C (dose: 50.0 micrograms/kg/injection, schedule: Q01DX009 (ip), vehicle: DMSO) was 179 % of control.
`CSC1SCC2C(=O)N(C)C(C(C)C)C(=O)OCC(NC(=O)c3cnc4ccccc4n3)C(=O)NC(C)C(=O)N(C)C1C(=O)N(C)C(C(C)C)C(=O)OCC(NC(=O)c1cnc3ccccc3n1)C(=O)NC(C)C(=O)N2C` (stereo unspecified) was tested, and the T/C (dose: 25.0 micrograms/kg/injection, schedule: Q01DX009 (ip), vehicle: saline with Tween-80) was 157 % of control, the T/C (dose: 50.0 micrograms/kg/injection, schedule: Q01DX009 (ip), vehicle: saline with Tween-80) was 177 % of control and the T/C (dose: 100.0 micrograms/kg/injection, schedule: Q01DX009 (ip), vehicle: saline with Tween-80) was 201 % of control.
In the case of `O=C1C2C3C=CC(C2C(=O)N1CO)C1C2C(=O)N(CO)C(=O)C2C31` (stereo unspecified), the T/C (dose: 12.5 mg/kg/injection, schedule: Q04DX004 (ip), vehicle: water) is reported as 106 % of control, the T/C (dose: 25.0 mg/kg/injection, schedule: Q04DX004 (ip), vehicle: water) is reported as 105 % of control and the T/C (dose: 50.0 mg/kg/injection, schedule: Q04DX004 (ip), vehicle: water) is reported as 106 % of control.
`C=C1C(=O)OC2C(OC(C)=O)C1C(OC(=O)C(C)CC)[C@]1(C)C(=O)C=C[C@H]1[C@@H]2C` (stereo partly specified) was tested, and the T/C (dose: 1.25 mg/kg/injection, schedule: Q01DX009 (ip), vehicle: Klucel (hydroxypropylcellulose) (HPC)) was 110 % of control, the T/C (dose: 2.5 mg/kg/injection, schedule: Q01DX009 (ip), vehicle: Klucel (hydroxypropylcellulose) (HPC)) was 107 % of control and the T/C (dose: 5.0 mg/kg/injection, schedule: Q01DX009 (ip), vehicle: Klucel (hydroxypropylcellulose) (HPC)) was 101 % of control. For the same molecule, the T/C (dose: 10.0 mg/kg/injection, schedule: Q01DX009 (ip), vehicle: Klucel (hydroxypropylcellulose) (HPC)) was 110 % of control.
In the case of `C[C@@](O)(/C=C/[C@H]1CC=CC(=O)O1)[C@@H](C[C@@H](O)\C=C/C=C\C=C\CO)OP(=O)(O)O`, the T/C (dose: 1.0 mg/kg/injection, schedule: Q01DX009 (ip), vehicle: water) is reported as 112 % of control, the T/C (dose: 2.0 mg/kg/injection, schedule: Q01DX009 (ip), vehicle: water) is reported as 106 % of control and the T/C (dose: 4.0 mg/kg/injection, schedule: Q01DX009 (ip), vehicle: water) is reported as 98 % of control. The T/C (dose: 8.0 mg/kg/injection, schedule: Q01DX009 (ip), vehicle: water) was 120 % of control.
`Nc1nc(=S)c2[nH]cnc2[nH]1` was tested, and the T/C (dose: 0.75 mg/kg/injection, schedule: Q04DX005 (ip), vehicle: alkali diluted with saline) was 101 % of control, the T/C (dose: 2.0 mg/kg/injection, schedule: Q04DX005 (ip), vehicle: alkali diluted with saline) was 92 % of control and the T/C (dose: 6.0 mg/kg/injection, schedule: Q04DX005 (ip), vehicle: alkali diluted with saline) was 157 % of control.
For `O=NN(CCCl)C(=O)NC1CCCCC1`, the T/C (dose: 6.0 mg/kg/injection, schedule: Q01DX005 (sc), vehicle: other) was 256 % of control and the T/C (dose: 12.0 mg/kg/injection, schedule: Q01DX005 (sc), vehicle: other) was 256 % of control.
`CCC(O)CC1OC2(CCC1C)CC1OC(=O)/C=C\C(C)(O)C(O)C(C)C(O)C(OC3CC(OC)C(O)C(C)O3)C(O)C(C)(O)CCC/C=C/C3CC(C)COC3(O)CC(O2)C1C` (stereo unspecified) was tested, and the T/C (dose: 0.25 mg/kg/injection, schedule: Q01DX009 (ip), vehicle: saline + alcohol) was 105 % of control, the T/C (dose: 0.5 mg/kg/injection, schedule: Q01DX009 (ip), vehicle: saline + alcohol) was 113 % of control and the T/C (dose: 1.0 mg/kg/injection, schedule: Q01DX009 (ip), vehicle: saline + alcohol) was 104 % of control. The T/C (dose: 2.0 mg/kg/injection, schedule: Q01DX009 (ip), vehicle: saline + alcohol) was 111 % of control.
With `CC(=O)OCC1OC(n2ncc(=O)[nH]c2=O)C(OC(C)=O)C1OC(C)=O` (stereo unspecified) the T/C (dose: 150.0 mg/kg/injection, schedule: Q04DX004 (ip), vehicle: Klucel (hydroxypropylcellulose) (HPC)) was 102 % of control, the T/C (dose: 300.0 mg/kg/injection, schedule: Q04DX004 (ip), vehicle: Klucel (hydroxypropylcellulose) (HPC)) was 102 % of control and the T/C (dose: 600.0 mg/kg/injection, schedule: Q04DX004 (ip), vehicle: Klucel (hydroxypropylcellulose) (HPC)) was 102 % of control. For the same molecule, the T/C (dose: 1200.0 mg/kg/injection, schedule: Q04DX004 (ip), vehicle: Klucel (hydroxypropylcellulose) (HPC)) was 87 % of control.
`COC1CC2C=C(C)/C=C/C=C/C(=O)NC(c3ccccc3)C/C=C/CCC(O)CC(=O)C2=C1O` (stereo unspecified) was tested, and the T/C (dose: 1.56 mg/kg/injection, schedule: Q01DX009 (ip), vehicle: Klucel (hydroxypropylcellulose) (HPC)) was 115 % of control.
In the case of `O=C1c2ccccc2C(Cl)(c2ccc(Cl)cc2)c2ccc(Cl)cc21` (stereo unspecified), the T/C (dose: 50.0 mg/kg/injection, schedule: Q04DX004 (ip), vehicle: saline with Tween-80) is reported as 116 % of control, the T/C (dose: 100.0 mg/kg/injection, schedule: Q04DX004 (ip), vehicle: saline with Tween-80) is reported as 107 % of control and the T/C (dose: 200.0 mg/kg/injection, schedule: Q04DX004 (ip), vehicle: saline with Tween-80) is reported as 108 % of control. The T/C (dose: 400.0 mg/kg/injection, schedule: Q04DX004 (ip), vehicle: saline with Tween-80) was 100 % of control.
For `N#CC(C#N)=NNc1ccc2cn[nH]c2c1`, the T/C (dose: 12.5 mg/kg/injection, schedule: Q04DX004 (ip), vehicle: Klucel (hydroxypropylcellulose) (HPC)) was 105 % of control, the T/C (dose: 25.0 mg/kg/injection, schedule: Q04DX004 (ip), vehicle: Klucel (hydroxypropylcellulose) (HPC)) was 95 % of control and the T/C (dose: 50.0 mg/kg/injection, schedule: Q04DX004 (ip), vehicle: Klucel (hydroxypropylcellulose) (HPC)) was 90 % of control. For the same molecule, the T/C (dose: 100.0 mg/kg/injection, schedule: Q04DX004 (ip), vehicle: Klucel (hydroxypropylcellulose) (HPC)) was 103 % of control.
For `O=C(O)CC(NC(=O)CP(=O)(O)O)C(=O)O` (stereo unspecified), the T/C (dose: 50.0 mg/kg/injection, schedule: Q04DX005 (ip), vehicle: saline) was 164 % of control, the T/C (dose: 100.0 mg/kg/injection, schedule: Q04DX005 (ip), vehicle: saline) was 180 % of control and the T/C (dose: 108.0 mg/kg/injection, schedule: Q04DX004 (ip), vehicle: saline) was 178 % of control. For the same molecule, the T/C (dose: 180.0 mg/kg/injection, schedule: Q04DX004 (ip), vehicle: saline) was 195 % of control, the T/C (dose: 200.0 mg/kg/injection, schedule: Q04DX005 (ip), vehicle: saline) was 165 % of control and the T/C (dose: 300.0 mg/kg/injection, schedule: Q04DX004 (ip), vehicle: saline) was 195 % of control. For the same molecule, the T/C (dose: 400.0 mg/kg/injection, schedule: Q04DX005 (ip), vehicle: saline) was 184 % of control and 200 % of control, the T/C (dose: 500.0 mg/kg/injection, schedule: Q04DX004 (ip), vehicle: saline) was 204 % of control and the T/C (dose: 833.0 mg/kg/injection, schedule: Q04DX004 (ip), vehicle: saline) was 216 % of control.
For `Cc1nc(C(Cl)(Cl)Cl)[nH]c(=O)c1SCCO`, the T/C (dose: 50.0 mg/kg/injection, schedule: Q04DX004 (ip), vehicle: distilled water + alcohol) was 101 % of control, the T/C (dose: 100.0 mg/kg/injection, schedule: Q04DX004 (ip), vehicle: distilled water + alcohol) was 93 % of control and the T/C (dose: 200.0 mg/kg/injection, schedule: Q04DX004 (ip), vehicle: distilled water + alcohol) was 94 % of control. For the same molecule, the T/C (dose: 400.0 mg/kg/injection, schedule: Q04DX004 (ip), vehicle: distilled water + alcohol) was 96 % of control.
